Test results reported in patent US20150203517A1, “Prodrugs of Compounds that Enhance Antifungal Activity and Compositions of Said Prodrugs” (priority 2014, published 2015).
≈ marks a conversion by molar mass, not a printed value. Counter-ions that a name gives are not always drawn. Like-named read-outs stand apart in the source and are kept apart here.

Assay: Saline solubility at 1.00 mg/mL and 0.50 mg/mL (with pH by indicator paper)
Format: physicochemical
Conditions: for pH at 1.00 mg/mL of MGCD290 in saline: final concentration of hydroxamate 1 1.00 mg/mL, pH indicator paper; for solubility at 1 h: saline or isotonic, thermodynamic from solid, centrifuged, soluble = no precipitate formed
Experimental: Assays were performed to determine the saline solubility at 1.00 and 0.50 mg/ml and the stability of certain of the prodrug compounds of Examples 1-111. The following procedures were used.
Step 1. Sample preparation. An amount of the compound sample was precisely weighed to correspond to around 5 mg of the hydroxamate of compound 1, taking into account the mass of the leaving group and the salt factor if applicable. The sample was placed in a 16×125 mm glass screw cap tube. Saline was added so that the final concentration of hydroxamate 1 was 1.00 mg/mL. The pH was measured with pH indicator paper. The tube was shaken for 1 hour on a Vortex apparatus then centrifuged at 3000 rpm (1800 rcf) for 5 minutes. If the compound example was soluble (no precipitate formed) the procedure continued to step 2. If a precipitate formed then the sample was diluted with saline so that the final concentration of the hydroxamate of compound 1 was 0.50 mg/mL, and the shaking and centrifuging steps were repeated. If the compound example was soluble (no precipitate formed) the procedure continued to step 2. If a precipitate formed the sample was discarded. Step 2. HPLC analysis. A 500 μL aliquot of a sample solution prepared according to Step 1 was taken up into a 1.5 mL injection vial to which was added 500 μL of saline. The vial was shaken on a Vortex apparatus, injected into the HPLC instrument (UV detection, zero time point) and the retention time and purity of the sample compound were determined. The injection was repeated after 6 hours and 24 hours, and a comparison was made of the retention time, peak areas and level of degradation (if any) using the GDADI50 method.

[1] = 0.50 mg/mL as hydroxamate 1, shaken 1 hour, read-out: Soluble at 0.5 mg/mL of MGCD290 (Y/N)
[2] = 1.00 mg/mL as hydroxamate 1, shaken 1 hour, read-out: Soluble at 1.00 mg/mL of MGCD290 (Y/N)

SMILES | pH at 1.00 mg/mL of MGCD290 in saline | solubility at 1 h [1] [µg/mL] | solubility at 1 h [2] [µg/mL]
COCCOCCOCCOCCOCCOCC(=O)NCCCC[C@H](NC(=O)COCCOCCOCCOCCOCCOC)C(=O)NCCCC(=O)ONC(=O)Cc1ccc(CCCCc2ccccc2)cc1 [Compound 103] | 4.5-5 |  | > 1000
NCCCC[C@H](N)C(=O)N1CCC[C@H]1C(=O)ONC(=O)Cc1ccc(CCCCc2ccccc2)cc1 [Compound 106, N-((S)-1-((S)-2,6-Diaminohexanoyl)pyrrolidine-2-carbonyloxy)-2-(4-(4-phenylbutyl)phenyl) acetamide dihydrochloride] | 3.5-4 | < 500 | < 1000
COCCOCC(=O)NCCCC[C@H](NC(=O)COCCOC)C(=O)N1CCC[C@H]1C(=O)ONC(=O)Cc1ccc(CCCCc2ccccc2)cc1 [Compound 108] | 4.5-5 | < 500 | < 1000
COCCOCCOCC(=O)N1CCC(CCC(=O)ONC(=O)Cc2ccc(CCCCc3ccccc3)cc2)CC1 [Compound 112] | 5.5-6 | < 500 | < 1000
Cl.O=C(Cc1ccc(CCCCc2ccccc2)cc1)NOC(=O)CC1CCNCC1 [Compound 114] | 4-4.5 | < 500 | < 1000
COCCOCCOCC(=O)N1CCC(CC(=O)ONC(=O)Cc2ccc(CCCCc3ccccc3)cc2)CC1 [Compound 115] | 4.5-5 | < 500 | < 1000
COCCOCCOCCOCC(=O)N1CCC(CC(=O)ONC(=O)Cc2ccc(CCCCc3ccccc3)cc2)CC1 [Compound 116] | 4.5-5 | < 500 | < 1000
Cl.O=C(Cc1ccc(CCCCc2ccccc2)cc1)NOC(=O)C1CCNCC1 [Compound 118, 2-(4-(4-phenylbutyl)phenyl)-N-(piperidine-4-carbonyloxy)acetamide hydrochloride] | 4-4.5 | < 500 | < 1000
COCCOCCOCC(=O)N1CCC(C(=O)ONC(=O)Cc2ccc(CCCCc3ccccc3)cc2)CC1 [Compound 119] | 4.5-5 | < 500 | < 1000
Cl.O=C(Cc1ccc(CCCCc2ccccc2)cc1)NOC(=O)CCCC1CCNCC1 [Compound 121, 2-(4-(4-phenylbutyl)phenyl)-N-(4-(piperidin-4-yl)butanoyloxy) acetamide hydrochloride] | 5.-5.5 | < 500 | < 1000
Cl.O=C(Cc1ccc(CCCCc2ccccc2)cc1)NOC(=O)CCC(=O)N1CCNCC1 [Compound 123, N-(4-oxo-4-(piperazin-1-yl)butanoyloxy)-2-(4-(4-phenylbutyl)phenyl) acetamide hydrochloride] | 4.5-5 |  | > 1000
COCCOCCOCC(=O)N1CCN(C(=O)CCC(=O)ONC(=O)Cc2ccc(CCCCc3ccccc3)cc2)CC1 [Compound 124] | 5-5.5 |  | > 1000
Cl.O=C(Cc1ccc(CCCCc2ccccc2)cc1)NOC(=O)COC1CCNCC1 [Compound 125, 2-(4-(4-phenylbutyl)phenyl)-N-(2-(piperidin-4-yloxy)acetoxy)acetamide hydrochloride] | 4.5-5 | < 500 | < 1000
COCCOCCOCCOCCOCCOCC(=O)N1CCC(OCC(=O)ONC(=O)Cc2ccc(CCCCc3ccccc3)cc2)CC1 [Compound 127] | 4.5-5 | < 500 | < 1000
Cl.O=C(Cc1ccc(CCCCc2ccccc2)cc1)NOC(=O)CCN1CCNCC1=O [Compound 128, N-(3-(2-oxopiperazin-1-yl)propanoyloxy)-2-(4-(4-phenylbutyl)phenyl) acetamide hydrochloride] | 4.5-5 |  | > 1000
COCCOCCOCC(=O)N1CC(CCCC(=O)ONC(=O)Cc2ccc(CCCCc3ccccc3)cc2)C1 [Compound 128B] | 5.5-6 | < 500 | < 1000
NCCNCC(=O)NCCCC(=O)ONC(=O)Cc1ccc(CCCCc2ccccc2)cc1 [Compound 133, 2-(2-Aminoethylamino)-N-(4-oxo-4-(2-(4-(4-phenylbutyl)phenyl)acetamidooxy)butyl) acetamide dihydrochloride] | 4.5-5 | < 500 | < 1000

Continued, values first:

pH at 1.00 mg/mL of MGCD290 in saline | solubility at 1 h [1] [µg/mL] | solubility at 1 h [2] [µg/mL] | SMILES
4.5-5 | < 500 | < 1000 | COCCOCCOCCOCCOCC(=O)N[C@@H](C)CC(=O)ONC(=O)Cc1ccc(CCCCc2ccccc2)cc1 [Compound 88]
4.5-5 |  | > 1000 | COCCOCCOCC(=O)NCCCC[C@H](NC(=O)COCCOCCOC)C(=O)NC[C@H](C)C(=O)ONC(=O)Cc1ccc(CCCCc2ccccc2)cc1 [Compound 91]
4.5-5 | 500 to 1000 (≈ 634 to 1270 µM) | < 1000 | COCCOCCOCCNC(=O)CN(CC(=O)NCCOCCOCCOC)C(=O)CCC(=O)ONC(=O)Cc1ccc(CCCCc2ccccc2)cc1 [Compound 95, 4-oxo-N,N-bis (12-oxo-2,5,8-trioxa-11-azatridecan-13-yl)-4-(2-(4-(4-phenylbutyl)phenyl)acetamidooxy)butanamide]
4.5-5 |  | > 1000 | COCCOCCOCCOCC(=O)NCCCC[C@H](NC(=O)COCCOCCOCCOC)C(=O)NCCCC(=O)ONC(=O)Cc1ccc(CCCCc2ccccc2)cc1 [Compound 101]
4.5-5 |  | > 1000 | COCCOCCOCCOCCOCC(=O)NCCCC[C@H](NC(=O)COCCOCCOCCOCCOC)C(=O)NCCCC(=O)ONC(=O)Cc1ccc(CCCCc2ccccc2)cc1 [Compound 102]
4.5-5 |  | > 1000 | COCCOCCOCC(=O)NCCCC[C@H](NC(=O)COCCOCCOC)C(=O)N1CCC[C@H]1C(=O)ONC(=O)Cc1ccc(CCCCc2ccccc2)cc1 [Compound 107, N,N′-((S)-6-Oxo-6-((S)-2-((2-(4-(4-phenylbutyl)phenyl)acetamidooxy)carbonyl)pyrrolidin-1-yl)hexane-1,5-diyl)bis(2-(2-(2-methoxyethoxyl)ethoxy)acetamide)]
5.5-6 | < 500 | < 1000 | COCCOCCOCCOCCOCC(=O)N1CCC(CCC(=O)ONC(=O)Cc2ccc(CCCCc3ccccc3)cc2)CC1 [Compound 113]
4.5-5 |  | > 1000 | COCCOCCOCCOCCOCCOCC(=O)N1CCC(CC(=O)ONC(=O)Cc2ccc(CCCCc3ccccc3)cc2)CC1 [Compound 117]
5.5-6 |  | > 1000 | COCCOCCOCC(=O)NCCN(CC(=O)NCCCC(=O)ONC(=O)Cc1ccc(CCCCc2ccccc2)cc1)C(=O)COCCOCCOC [Compound 134, 2-(2-(2-Methoxyethoxyl)ethoxy)-N-(2-oxo-2-(4-oxo-4-(2-(4-(4-phenylbutyl)phenyl)acetamidooxy)butylamino)ethyl)-N-(10-oxo-2,5,8-trioxa-11-azatridecan-13-yl)acetamide]
